Assay results published in patent US10273487B2, “Transfection vector for pathogenic amoebae and uses thereof” (priority 2017, dated 2019).
Converted amounts (≈) assume the structure as drawn. Where two headings read alike, the source gives them in different places.

Legend:
N. fowleri [1] = experiment: MTS viability assays in N. fowleri; design: IC50 Value / IC90 Value: unit not given beside the values; details: for IC95 Value / IC50 Value / IC90 Value: MTS viability assay, N. fowleri, Table 1, unit not given
N. fowleri [2] = experiment: Preliminary experiments on natural resistance of N. fowleri to selection marker
Excerpt: Five different selection markers were screened for their suitability to use in an N. fowleri transfection system. […] Hygromycin was used in subsequent studies as the selectable marker, partly due to its easy use in other eukaryotic transfection systems.

COc1ccc(C[C@H](N)C(=O)N[C@H]2[C@@H](O)[C@H](n3cnc4c(N(C)C)ncnc43)O[C@@H]2CO)cc1 [puromycin]
IC95 Value (N. fowleri [1]): 1.91
IC50 (N. fowleri [1]; Naegleria fowleri, read-out: IC50 Value): 0.58 µg/mL (≈ 1.23 µM)
IC50 (N. fowleri [1]; Naegleria fowleri, read-out: IC50 values): 0.6 µg/mL (≈ 1.27 µM)
IC90 (N. fowleri [1]; Naegleria fowleri, read-out: IC90 Value): 1.49 µg/mL (≈ 3.16 µM)

neomycin
resistance of N. fowleri to the selection marker (N. fowleri [2]): natural resistance
IC50 Value (N. fowleri [1]): 681.1
IC90 Value (N. fowleri [1]): 2385.3
IC95 Value (N. fowleri [1]): 3078.4

nourseothricin
IC50 Value (N. fowleri [1]): 26.5
IC90 Value (N. fowleri [1]): 165.4
IC95 Value (N. fowleri [1]): 218.7

bleomycin
IC50 Value (N. fowleri [1]): 0.49
IC90 Value (N. fowleri [1]): 1.62
IC95 Value (N. fowleri [1]): 2.10
